Data set [1] relates to prostate cancer cell line LNCaP. Briefly: Anti-prostate cancer screening, anti-androgenic bioassay (AR transactivation, MMTV-luciferase) in LNCaP cells. The class given is cell-based, Human. The conditions noted are these: 1 nM DHT, 24 h, mean of three separate experiments. The protocol:
(§1) Human prostate cancer cell lines LNCaP and PC-3 were maintained in RPMI 1640 medium and DMEM medium, respectively. Both media were supplemented with penicillin (25 units/mL), streptomycin (25 μg/mL), and 10% fetal calf serum. For the androgen receptor transactivation assay, an androgen-dependent reporter gene transcription test was employed as the primary screening for potential anti-androgen identification. This assay was first performed in LNCaP cells, which express a clinically relevant mutant AR.
(§2) Cells were plated in 24-well tissue culture dishes for 24 hours (PC-3 cells) or 48 hours (LNCaP cells) prior to transfection. Subsequently, LNCaP cells were transfected with a reporter gene, MMTV-luciferase, which contains MMTV-LTR promoter and androgen receptor binding element, and PRL-SV40, which served as an internal control for transfection efficiency. PC-3 cells were transfected with a wild type AR expression plasmid, pSG5AR, in addition to the aforementioned MMTV-luciferase reporter gene and PRL-SV40 internal control. SuperFect (Qiagen, Chatsworth, Calif.) was employed as the transfection reagent following manufacturer's recommendations.
(§3) At the end of a 5-hour transfection period, the medium was changed to DMEM or RPMI 1640 medium, supplemented with 10% charcoal dextran-stripped (that is, androgen-depleted) serum. After 24 h, the cells were treated with 1 nM of DHT and/or test compounds at the designated concentration for another 24 h. The cells were harvested for luciferase activity assay using the Dual Luciferase Assay System (Promega, Madison, Wis.).
The derived data were expressed as relative luciferase activity normalized to the internal luciferase control. Cells cultured in medium containing DHT (androgen), as a positive control, induced a marked reporter gene expression. […] The results are reported in Table 3, and reflected in FIGS. 4 and 5.

Data set [2] deals with rat prostate testosterone 5α-reductase. Briefly: In vitro 5α-reductase inhibitor enzymatic assay (rat ventral prostate homogenate, [3H]testosterone conversion). In kind it is biochemical. The note with it: pH 6.5, 37° C., 30 min, mean of three separate experiments. How it is done: A homogenate of the ventral prostate gland of male Sprague-Dawley rats was prepared, and testosterone 5α-reductase inhibition was measured using the methods previously reported in Iwai, A., et al., “Spectrophotometric Method for the Assay of Steroid 5α-reductase activity of rat liver and prostate microsomes”, Analytical Sciences 2013, 29: 455-459. Both the type 1 and the type 2 isozymes are present in the ventral prostate of the rat. In the assay, rat prostate extracts were used in a neutral pH buffer, and both isozymes were assayed.
The ventral prostate glands were excised and minced with a pair of scissors. The 20 w/v % homogenates were prepared with a glass-glass homogenizer in medium A (sucrose 0.32 M, dithiothreitol 0.1 mM, and sodium phosphate 20 mM, pH 6.5). The homogenate was filtered with surgical gauze and then centrifuged at 3000×g for 10 min. The pellets were suspended in medium A at a protein concentration of 20 mg/ml by triturating sequentially through an 18-gauge needle, and then a 20-gauge needle.
To 40 μl of the enzyme suspension, 10 μl of test sample in ethanol or ethanol alone and a mixture containing 0.525 ml of reaction solution consisting of dithiothreitol 1 mM, sodium phosphate 40 mM, pH 6.5, NADPH 5×10^−5 M, and [1,2,6,7^−3H]testosterone 2.2×10^−9 M were added. The assay mixture was incubated at 37° C. for 30 min. The reaction was stopped by the addition of 1 ml of ethyl acetate, and 50 μl of the upper phase was separated on a silica gel plate in the developing solvent system of ethyl acetate/cyclohexane, at a ratio of 1:1. The zones corresponding to the testosterone and 5α-dihydrotestosterone were cut into fragments. Each fragment was added to 5 ml of Aquasol-2 and counted with a liquid scintillation counter to determine ^3H radioactivity.
The inhibitory activity of each test sample was calculated as follows: Rate of enzyme reaction (R,%)=D/(T+D)×100 Inhibitory activity (%)=(1−Rsample/Rcontrol)×100 where D and T are the ^3H radioactivity recovered. The results are reported in Table 1, and reflected in FIG. 2.

A further data set relates to 5α-reductase. Briefly: In vivo 5α-reductase inhibitor biological assay. The arrangement: species or system male Sprague-Dawley rats. The note with it: rats treated subcutaneously from postnatal third day until seven weeks; mean of three separate experiments.
Data set [3] concerns prostate cancer cell line PC3. Briefly: Anti-prostate cancer screening, anti-androgenic bioassay (wild type AR transactivation, MMTV-luciferase) in PC-3 cells. The note with it: PC-3 cells transfected with wild type AR, 1 nM DHT, 24 h, mean of three separate experiments. In kind it is cell-based, Human. The protocol: as §1
Wild type AR transactivation assay was performed in PC-3 host cells, which lack an endogenous, functional AR.
as §2, §3
The derived data were expressed as relative luciferase activity normalized to the internal luciferase control. […] The results are reported in Table 3, and reflected in FIGS. 4 and 5.

By IC50 is commonly meant the concentration at which inhibition is half-maximal. Low values mean greater potency, high ones weaker potency. What is called melting point is the temperature, or range, at which the solid turns liquid.

Regarding `CC(C)(C)NC(=O)[C@H]1CC[C@H]2[C@@H]3CC[C@H]4NC(=O)C=C[C@]4(C)[C@H]3CC[C@]12C` [Finasteride, finasteride, reference compound], the IC50 was above 100000 nM in data set [1] (Homo sapiens) and 60 ± 1.2 nM in data set [2]. In addition, the “ED50 of the 5α-reductase inhibitors activities” value with 5α-reductase amounted to 170 ± 7.9 nM.
`CC(C)C1=CC2=CC(O)C3C(C)(C(=O)Nc4ccccc4)CCCC3(C)C2CC1` (centres unmarked) [Compound 5c, Phenyl-6-hydroxy-abieta-7,13-dien-18-carboxamide]: the IC50 in data set [1] (Homo sapiens) was determined as 5.78 ± 0.03 nM; in data set [2] it was 0.68 ± 0.08 nM; in data set [3] (Homo sapiens) it was 66.2 ± 2.3 nM. In addition, in the data set with 5α-reductase, the “ED50 of the 5α-reductase inhibitors activities” value was 71 ± 0.74 nM.
With `CC(C)(C#N)c1cc(Cn2cncn2)cc(C(C)(C)C#N)c1` [Anastrozole, anastrozole, reference compound], the IC50 in data set [2] turned out to be 11230 ± 23 nM. Further, in the data set with 5α-reductase, the “ED50 of the 5α-reductase inhibitors activities” value came to 1090 ± 3.4 nM.
For the compound `CC(C)C1=CC2=CCC3C(C)(C(=O)Nc4ccccc4)CC(O)CC3(C)C2CC1` (centres unmarked) [Compound 4c, Phenyl-2-hydroxy-abieta-7,13-dien-18-carboxamide], the IC50 in data set [1] (Homo sapiens) was 2.33 ± 0.05 nM; in data set [2], 0.19 ± 0.02 nM; in data set [3] (Homo sapiens) it was 11.14 ± 0.09 nM. Besides, in the data set with 5α-reductase, the “ED50 of the 5α-reductase inhibitors activities” value was determined as 38 ± 0.45 nM.
On to `CC(C)C1=CC2=CC(O)C3C(C)(C(=O)Sc4ccccc4)CCCC3(C)C2CC1` (centres unmarked) [Compound 5b, Phenyl-6-hydroxy-abieta-7,13-dien-18-thioate], for which the IC50 in data set [1] (Homo sapiens) came out at 7.8 ± 0.09 nM; in data set [2], 0.88 ± 0.07 nM; in data set [3] (Homo sapiens) it was 83.5 ± 2.3 nM. The “ED50 of the 5α-reductase inhibitors activities” value in the data set on 5α-reductase turned out to be 88 ± 0.89 nM.
`CC(C)C1=CC2=CC3OC(=O)C4(C)CCCC(C)(C2CC1)C34` (centres unmarked) [Compound 3, Abieta-7,13-dien-18-oic acid (18→6) lactone] had a melting point of 301 to 303 °C. The midpoint of inhibition in data set [1] (Homo sapiens), the IC50, lay at 9.08 ± 0.08 nM. In data set [2], the IC50 worked out at 0.91 ± 0.07 nM. In addition, the “ED50 of the 5α-reductase inhibitors activities” value in the data set with 5α-reductase is 90 ± 0.88 nM. For the same compound, the IC50 in data set [3] (Homo sapiens) was determined as 112 ± 3.7 nM.
In turn, `CC(C)C1=CC2=CC[C@@H]3[C@](C)(CCC[C@@]3(C)C(=O)O)[C@H]2CC1` [Abietic acid] had an IC50 in data set [2] of 56000 ± 22000 nM. Also, in the data set on 5α-reductase, the “ED50 of the 5α-reductase inhibitors activities” value came out at 8800 ± 87 nM.
As for `CC(C)C1=CC2=CCC3C(C)(C(=O)Oc4ccccc4)CC(O)CC3(C)C2CC1` (centres unmarked) [Compound 4a, Phenyl-2-hydroxy-abieta-7,13-dien-18-oate], the IC50 in data set [1] (Homo sapiens) amounted to 3.24 ± 0.04 nM; in data set [2] it was 0.22 ± 0.03 nM; in data set [3] (Homo sapiens) it was 18.2 ± 11 nM. Also, in the data set on 5α-reductase, the “ED50 of the 5α-reductase inhibitors activities” value was 44 ± 0.65 nM.
`CC(C)C1=CC2=CCC3C4(C)CC(CC3(C)C2CC1)OC4=O` (centres unmarked) [Compound 2, Abieta-7, 13-dien-18-oic acid (18→2) lactone]: the melting point lay in the range of 227 to 229 °C. The same compound came in with an IC50 in data set [1] (Homo sapiens) of 4.22 ± 0.03 nM. Further, the half-maximal inhibitory concentration (IC50) in data set [2] worked out at 0.34 ± 0.06 nM. Moreover, the “ED50 of the 5α-reductase inhibitors activities” value in the data set on 5α-reductase is 64 ± 0.76 nM. For the same compound, the IC50 in data set [3] (Homo sapiens) is 45.7 ± 1.09 nM.
For `CC(C)C1=CC2=CC(O)C3C(C)(C(=O)Oc4ccccc4)CCCC3(C)C2CC1` (centres unmarked) [Compound 5a, Phenyl-6-hydroxy-abieta-7,13-dien-18-oate], the IC50 in data set [1] (Homo sapiens) was determined as 6.21 ± 0.04 nM; in data set [2], 0.74 ± 0.06 nM; in data set [3] (Homo sapiens), 71.2 ± 3.6 nM. In addition, the “ED50 of the 5α-reductase inhibitors activities” value in the data set with 5α-reductase stood at 76 ± 0.89 nM.
Regarding `CC(C)C1=CC2=CCC3C(C)(C(=O)Sc4ccccc4)CC(O)CC3(C)C2CC1` (centres unmarked) [Compound 4b, Phenyl-2-hydroxy-abieta-7,13-dien-18-thioate], the IC50 was found to be 3.58 ± 0.02 nM in data set [1], 0.29 ± 0.01 nM in data set [2] and 26.4 ± 1.8 nM in data set [3]. Also, the “ED50 of the 5α-reductase inhibitors activities” value in the data set on 5α-reductase came out at 45 ± 0.57 nM.

The record behind these values is US10064837B1, “Abietic acid derivatives as anti-tumor agents” (KING SAUD UNIVERSITY, priority 2018, dated 2018).
